Data reported in patent publication US4992449A, “7-(substituted)cycloalkylamino-1 -(substituted)-6-fluoro-1,4-dihydro-4-oxo-3-quinolinecarboxylic acids” (American Cyanamid Company, priority 1990, dated 1991).
Values after ≈ are worked out from the molar mass of the structure shown. Where two headings read alike, the source gives them in different places.

Key:
Assay in all cases: In vitro antibacterial MIC, agar plate dilution
Format in all cases: cell-based
[1] = tested on: Excherichia coli CMC 84-11; conditions: 18 h, Table II, read-out: MIC
Description: (§1) The in vitro antimicrobial spectrum of the compounds of this invention were determined by the agar plate dilution method with Mueller-Hinton agar and an inoculum of each test organism of approximately 10^4 colony forming units delivered by the Steers replicating device. The minimal inhibitory concentration (MIC) in mcg/ml is defined as the lowest concentration of test compound that inhibited visible growth after 18 hours incubation at 35° C. Results are given in Table I, with the test compounds identified by the number of their hereinafter described examples

[2] = tested on: Escherichia coli ATCC 25922; conditions: Escherichia coli, ATCC25922, 18 h, read-out: MIC
Description: as §1

[3] = tested on: Morganella morganii MOR 84-45; conditions: MOR8445, Mueller-Hinton agar, 10^4 CFU, 18 hours, 35° C.
Description: as §1

[4] = tested on: Escherichia coli MOR 84-20; conditions: MOR8420, Mueller-Hinton agar, 10^4 CFU, 18 hours, 35° C.
Description: as §1

[5] = tested on: Proteus rettgeri IO 83-21; conditions: Providencia rettgeri, IO8321, Mueller-Hinton agar, 10^4 CFU, 18 hours, 35° C.
Description: as §1

[6] = tested on: Moranella morganii VGH 84-12; conditions: Mueller-Hinton agar, 10^4 CFU, 18 hours, 35° C.
Description: as §1

[7] = tested on: Pseudomonas aeruginosa VGH 84-4; conditions: Pseudomonas aeruginosa, VGH844, 18 h, Table II, read-out: MIC
Description: as §1

[8] = tested on: Moranella morganii CMC 84-38; conditions: Mueller-Hinton agar, 10^4 CFU, 18 hours, 35° C.
Description: as §1

[9] = tested on: Serratia marcescens K 84-18; conditions: K8418, 18 h, Table II, read-out: MIC
Description: as §1

[10] = tested on: Escherichia coli CMC 84-50; conditions: CMC8450, Mueller-Hinton agar, 10^4 CFU, 18 hours, 35° C.
Description: as §1

[11] = tested on: Serratia marcescens MOR 84-41; conditions: MOR8441, Mueller-Hinton agar, 10^4 CFU, 18 hours, 35° C.
Description: as §1

[12] = tested on: Staphylococcus aureus K 82-26; conditions: K8226, Mueller-Hinton agar, 10^4 CFU, 18 hours, 35° C.
Description: as §1

[13] = tested on: Staphylococcus aureus Smith 1; conditions: Staphylococcus aureus, SMITH1, 18 h, Table II, read-out: MIC
Description: as §1

[14] = tested on: Streptococcus faecalis UCI 85-30; conditions: Enterococcus faecalis, UCI8530, Mueller-Hinton agar, 10^4 CFU, 18 hours, 35° C.
Description: as §1

[15] = tested on: Providencia stuartii CMC 83-3; conditions: CMC833, Mueller-Hinton agar, 10^4 CFU, 18 hours, 35° C.
Description: as §1

[16] = tested on: Staphylococcus aureus VGH 84-45; conditions: VGH8445, 18 h, Table II, read-out: MIC
Description: as §1

[17] = tested on: Pseudomonas aeruginosa CMC 83-20; conditions: CMC8320, Mueller-Hinton agar, 10^4 CFU, 18 hours, 35° C.
Description: as §1

[18] = tested on: Staphylococcus aureus VGH 84-47; conditions: VGH8447, Mueller-Hinton agar, 10^4 CFU, 18 hours, 35° C.
Description: as §1

[19] = tested on: Proteus rettgeri CMC 84-41; conditions: Providencia rettgeri, CMC8441, 18 h, Table II, read-out: MIC
Description: as §1

[20] = tested on: Staphylococcus aureus ATCC 29213; conditions: Staphylococcus aureus, ATCC29213, 18 h, read-out: MIC
Description: as §1

[21] = tested on: Staphylococcus faecalis VGH 84-69; conditions: VGH8469, Mueller-Hinton agar, 10^4 CFU, 18 hours, 35° C.
Description: as §1

[22] = tested on: Serratia marcescens VGH 84-30; conditions: VGH8430, 18 h, Table II, read-out: MIC
Description: as §1

[23] = tested on: Citrobacter diversus K 82-24; conditions: Citrobacter koseri, K8224, Mueller-Hinton agar, 10^4 CFU, 18 hours, 35° C.
Description: as §1

[24] = tested on: Staphylococcus faecalis CMC 83-120; conditions: CMC83120, Mueller-Hinton agar, 10^4 CFU, 18 hours, 35° C.
Description: as §1

[25] = tested on: Morganella morganii CMC 84-37; conditions: CMC8437, 18 h, Table II, read-out: MIC
Description: as §1

[26] = tested on: Serratia marcescens CMC 83-74; conditions: CMC8374, Mueller-Hinton agar, 10^4 CFU, 18 hours, 35° C.
Description: as §1

[27] = tested on: Klebsiella neumoniae MOR 84-24; conditions: MOR8424, Mueller-Hinton agar, 10^4 CFU, 18 hours, 35° C.
Description: as §1

[28] = tested on: Streptococcus faecalis VGH 84-65; conditions: Enterococcus faecalis, VGH8465, 18 h, Table II, read-out: MIC
Description: as §1

[29] = tested on: Enterobacter cloacae MOR 84-30; conditions: MOR8430, Mueller-Hinton agar, 10^4 CFU, 18 hours, 35° C.
Description: as §1

[30] = tested on: Pseudomonas aeruginosa LL-1244; conditions: Pseudomonas aeruginosa, LL1244, 18 h, Table II, read-out: MIC
Description: as §1

[31] = Table I, Escherichia coli ATCC 25922, Mueller-Hinton agar, 10^4 CFU, 18 hours, 35° C.
[32] = Table II, Excherichia coli ATCC 25922
[33] = Table I, Mueller-Hinton agar, 10^4 CFU, 18 hours, 35° C.

MIC [1] [µg/mL] | MIC [2, 31] [µg/mL] | MIC [2, 32] [µg/mL] | MIC [3] [µg/mL] | MIC [4] [µg/mL] | MIC [5] [µg/mL] | MIC [6] [µg/mL] | MIC [7] [µg/mL] | MIC [8] [µg/mL] | MIC [9] [µg/mL] | MIC [10] [µg/mL] | MIC [11] [µg/mL] | MIC [12] [µg/mL] | MIC [13] [µg/mL] | MIC [14] [µg/mL] | MIC [15] [µg/mL] | MIC [16] [µg/mL] | MIC [17] [µg/mL] | MIC [18] [µg/mL] | MIC [19] [µg/mL] | Compound | other results
2 (≈ 6 µM) | 0.5 (≈ 1.5 µM) | 2 (≈ 6 µM) | 0.5 (≈ 1.5 µM) | 1 (≈ 3 µM) | 2 (≈ 6 µM) | 2 (≈ 6 µM) | 64 (≈ 192 µM) | 1 (≈ 3 µM) | 4 (≈ 12 µM) | 2 (≈ 6 µM) | 1 (≈ 3 µM) | 1 (≈ 3 µM) | 8 (≈ 24 µM) | 4 (≈ 12 µM) | > 16 | 64 (≈ 192 µM) | > 16 | 2 (≈ 6 µM) | 8 (≈ 24 µM) | CCn1cc(C(=O)O)c(=O)c2cc(F)c(N[C@@H]3CCC[C@@H]3N)cc21 (relative stereo) [Example 4, Cis-7-[(2-Aminocyclopentyl)amino]-1-ethyl-6-fluoro-1,4-dihydro-4-oxo-3-quinolinecarboxylic acid] | MIC [20, 33]: 4 µg/mL (≈ 12 µM); MIC ([20]; Table II): 128 µg/mL (≈ 384 µM); MIC [21]: 4 µg/mL (≈ 12 µM); MIC [22]: 16 µg/mL (≈ 48 µM); MIC [23]: 0.5 µg/mL (≈ 1.5 µM); MIC [24]: 4 µg/mL (≈ 12 µM); MIC [25]: 4 µg/mL (≈ 12 µM); MIC [26]: > 16 µg/mL; MIC [27]: 2 µg/mL (≈ 6 µM); MIC [28]: 32 µg/mL (≈ 96 µM); MIC [29]: 4 µg/mL (≈ 12 µM); MIC [30]: 32 µg/mL (≈ 96 µM)
1 (≈ 2.5 µM) | 2 (≈ 5.01 µM) | 1 (≈ 2.5 µM) | 4 (≈ 10 µM) | 2 (≈ 5.01 µM) | 4 (≈ 10 µM) | 4 (≈ 10 µM) | 16 (≈ 40.1 µM) | 8 (≈ 20 µM) | 2 (≈ 5.01 µM) | 4 (≈ 10 µM) | 4 (≈ 10 µM) | 4 (≈ 10 µM) | 2 (≈ 5.01 µM) | > 16 | > 16 | 4 (≈ 10 µM) | > 16 | 4 (≈ 10 µM) | 4 (≈ 10 µM) | N[C@H]1CCC[C@H]1Nc1cc2c(cc1F)c(=O)c(C(=O)O)cn2-c1ccc(F)cc1 (relative stereo) [Example 3] | MIC [20, 33]: 4 µg/mL (≈ 10 µM); MIC ([20]; Table II): 4 µg/mL (≈ 10 µM); MIC [21]: > 16 µg/mL; MIC [22]: 8 µg/mL (≈ 20 µM); MIC [23]: 2 µg/mL (≈ 5.01 µM); MIC [24]: > 16 µg/mL; MIC [25]: 4 µg/mL (≈ 10 µM); MIC [26]: > 16 µg/mL; MIC [27]: 4 µg/mL (≈ 10 µM); MIC [28]: 64 µg/mL (≈ 160 µM); MIC [29]: 8 µg/mL (≈ 20 µM); MIC [30]: 16 µg/mL (≈ 40.1 µM)
